Assay results taken from patent publication US20020058295A1, “Method of screening candidate compounds for susceptibility to oxidative metabolism” (priority 1998, published 2002).
Like-named read-outs stand apart in the source and are kept apart here.

How the values were obtained:
CYP3A4 [1] = molecular target: T1, CYP3A4 (Homo sapiens, UniProt P08684); conditions: Crespi et al., Anal. Biochem. 248:188-190 (1997); cited from earlier work
CYP3A4 [2] = molecular target: T1, CYP3A4; assay: DCF formation during CYP3A4-mediated metabolism of substrates (CYP3A4OR, DCFH-DA, NADPH)
Experimental: A fluorogenic probe 2′, 7′-dichlorodihydrofluorescin-diacetate (DCFH-DA) was added to a CYP-mediated reaction mixture containing a substrate, isoenzyme, and NADPH in Tris buffer (50 mM, pH 7.4). The substrate comprised testosterone. Metabolism of the substrate was examined by measurement of formation of the resulting metabolite (prior art method) and/or 2′, 7′-dichlorofluroescein (DCF; method in accordance with the present invention) which was converted from the DCFH-DA in the presence of the ROS produced by CYP-mediated reactions. Dextromethorphan and benzyloxyresorufin served as two additional substrates, and phenacetine (not a CYP3A4 substrate) as a negative control for CYP3A4 to test whether the method of the present invention could differentiate substrates with different metabolic rates or substrates from non-substrates.
Initial studies were conducted to examine whether DCF was formed during CYP-mediated oxidation using testosterone hydroxylation by CYP3A4OR. A reaction mixture (total 2 ml) comprising DCFH-DA (5.36 μM), CYP3A4OR (0.5 mg/ml) and testosterone (50 μM) in Tris buffer (50 mM, pH 7.4) was prepared. The reaction was initiated by adding NADPH (0.5 mM) and allowed to proceed at room temperature. The fluorescent spectra (emission and excitation) of DCF formed from the incubation was determined using LS50B Luminescence Spectrometer (Perkin-Elmer, Norwalk, Conn.). The spectra were compared with that of standard DCF in Tris buffer (50 mM, pH 7.4). An incubation mixture that contained all the components as described previously except for DCFH-DA served as a control.
(§1) Metabolism—After obtaining the maximal excitation and emission wavelengths of DCF under experimental conditions, the fluorescent signals at the maximal excitation and emission wavelengths were determined for incubation reactions that contained 12.5, 25, and 50 μM testosterone to test whether DCF formation was dependent on testosterone concentrations. The incubation conditions were the same as those described above. The formation of DCF at 10 min post addition of NADPH was calculated based on the standard curve of DCF. The standard curve covered DCF concentrations ranging from 0.05 to 50 nM. In parallel, DCF formation was determined with incubation reactions that were devoid of any of NADPH, CYP3A4 or testosterone.
DCFH-DA (1, 2.5 or 5 μM) was incubated with CYP3A4OR (0.5 mg/ml protein), testosterone (33 μM), and NADPH (1 mM) in Tris buffer. DCF concentration was measured at 5, 10, 20 and 30 min. The effect of NADPH concentration on DCF formation at 20 and 30 min was examined with incubations containing NADPH (0.5, 1 or 2 mM), testosterone (33 μM), and DCFH-DA (2.5 μM).
(§2) DCFH-DA (2.5 ,μM) was incubated with testosterone (5-40 4 μM), CYP3A4OR (0.5 mg/ml protein) and NADPH (1 mM) in Tris buffer. The total incubation volume was 1 ml. The formation of DCF was measured at 10 and 20 min post addition of NADPH. Triplicate incubations were performed at each concentration. A Michaelis-Menten function was used to fit to DCF formation rate vs. testosterone concentration data to obtain estimates of the relevant kinetic parameters using the nonlinear least-squares regression method (Winnonlin Scientific Consulting Co., Apex, N.C.). Parallel experiments were conducted to obtain the kinetic parameters based on measurement of 6β-OH testosterone, a specific CYP3A4-mediated metabolite of testosterone, with the HPLC-UV method. The concentration range of testosterone used for the HPLC-UV method was 10 to 75 μM.
Dextromethorphan (2-100 μM), benzyloxyresorufin (5-100 μM), or phenacetin (48 μM) was incubated with CYP3A4OR (0.5 or 1 mg/ml), DCFH-DA (2.5 μM) and NADPH (1 mM) in Tris buffer. In the case of benzyloxyresorufin, pluronic F-68 (2%, 5 μl) was added to the reaction mixture (Crespi et al., Ana. Biochem. 248:188-190). DCF formation was measured at timed intervals.

CYP3A4 [3] = molecular target: T1, CYP3A4; assay: HPLC monitoring of potential phenacetin metabolites after incubation with CYP3A4OR; type: in vitro ADME; parameters: Glaxo Wellcome Inc. (gift); conditions: phenacetin 92 μM; CYP3A4OR 0.5 or 1 mg/ml; NADPH 1 mM; 10 or 30 min
Experimental: Briefly, acetonitrile (0.4 ml) was added to a reaction mixture (0.5 ml) of phenacetin as described previously. The resultant solution was mixed and centrifuged (15,000×3 min). An aliquot (100 μl) of the supernatant was injected to an Advantage 100 5 micron C18 column (4.6×250 mm, Thomas Liquid Chromatography). The mobile phase comprised CH3CN and H2O with a gradient from 1 to 99% CH3CN over 20 min at a flow rate of 1 ml/min. Phenacetin and its potential metabolites were monitored at 244 nm.
Potential metabolites of phenacetin were monitored by HPLC. […] Phenacetin (92 μM) was incubated with CYP3A4oR (0.5 or 1 mg/ml) and NADPH (1 mM) for 10 or 30 min. Incubation in the absence of NADPH was used as control.

CYP3A4 [4] = molecular target: T1, CYP3A4; assay: 6β-OH testosterone formation during CYP3A4-mediated testosterone metabolism, HPLC-UV method; conditions: recombinant CYP3A4OR
Experimental: as §1
as §2, with “Parallel experiments were conducted to obtain the kinetic parameters based on measurement of 6β-OH testosterone, a specific CYP3A4-mediated metabolite of testosterone, with the HPLC-UV method. The concentration range of testosterone used for the HPLC-UV method was 10 to 75 μM.” left out

CYP1A2 = molecular target: T2, CYP1A2 (Homo sapiens, UniProt P05177); conditions: 5 min
T2 sequence (P05177 1-516): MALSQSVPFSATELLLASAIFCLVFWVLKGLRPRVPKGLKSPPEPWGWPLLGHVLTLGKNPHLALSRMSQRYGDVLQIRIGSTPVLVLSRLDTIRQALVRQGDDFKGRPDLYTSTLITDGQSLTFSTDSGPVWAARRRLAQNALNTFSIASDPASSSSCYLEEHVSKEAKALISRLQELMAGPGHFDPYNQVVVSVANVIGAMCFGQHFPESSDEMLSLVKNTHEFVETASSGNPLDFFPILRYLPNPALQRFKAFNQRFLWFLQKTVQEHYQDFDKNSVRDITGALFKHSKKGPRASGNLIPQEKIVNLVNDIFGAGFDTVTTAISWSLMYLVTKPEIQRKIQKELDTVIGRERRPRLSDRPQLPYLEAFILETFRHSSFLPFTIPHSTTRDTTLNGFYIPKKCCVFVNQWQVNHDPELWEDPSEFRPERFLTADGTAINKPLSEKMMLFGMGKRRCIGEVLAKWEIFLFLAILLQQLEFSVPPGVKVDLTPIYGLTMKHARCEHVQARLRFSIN
Experimental: The effect of furafylline, a specific inhibitor of CYP1A2, on CYP1A2-mediated ethoxyresorufin metabolism was also examined. Furafylline (1 and 10 ,μM) was pre-incubated with CYP1A2 SUPERSOME™ (180 μg/ml protein) and NADPH (4 mM) in Tris buffer in a total volume of 0.5 ml for 10 min. Then ethoxyresorufin (5 μM), DCFH-DA (5 μM), and supplemental NADPH was added to the mixture. The reaction proceeded for 5 min.

[5] = substrate: CCOc1ccc2nc3ccc(=O)cc-3oc2c1; assay: Resorufin formation during CYP1A2-mediated metabolism of ethoxyresorufin (fluorescence spectrophotometry); type: in vitro ADME, human; conditions: other: CYP1A2 SUPERSOME 90 μg/ml; 5 min
Experimental: Resorufin, a common metabolite of ethoxyresorufin by CYP1A2 and of benzyloxyresorufin by CYP3A4, was measured by fluorescence spectrophotometry as described above for DCF, with excitation and emission wavelength at 570 and 583 nm, respectively.
(§3) Initial experiments were conducted to examine ethoxyresorufin concentration-dependent formation of DCF. Ethoxyresorufin (0.5, 5, 50 μM) was incubated with CYP1A2 SUPERSOME™ (sold under this trademark by Gentest Corp., Woburn, Mass.) (90 μg/ml protein), DCFH-DA (5 μM) and NADPH (1 mM). Formation of resorufin and DCF for the sample was measured at 8 and 10 min, respectively. The kinetic parameters then were obtained by incubating ethoxyresorufin (0.5-2.5 μM) with CYP1A2 SUPERSOME™ (90 μg/ml protein), DCFH-DA (5 μM), and NADPH (1 mM) for 5 min for measurement of resorufin formation and 15 min for measurement of DCF formation. Formation of DCF and resorufin was determined by fluorescence spectrophotometry. All experiments were performed in triplicate unless otherwise indicated.

[6] = substrate: CCOc1ccc2nc3ccc(=O)cc-3oc2c1; assay: DCF formation during CYP1A2-mediated metabolism of ethoxyresorufin (CYP1A2 SUPERSOME); type: in vitro ADME, human; conditions: other: CYP1A2 SUPERSOME 90 μg/ml; DCFH-DA 5 μM; 15 min
Experimental: as §3

[7] = read-out: Apparent Km by measurement of DCF formation, CYP3A4OR, DCFH-DA 2.5 μM, NADPH 1 mM, Michaelis-Menten fit

T1 sequence (P08684 whole entry): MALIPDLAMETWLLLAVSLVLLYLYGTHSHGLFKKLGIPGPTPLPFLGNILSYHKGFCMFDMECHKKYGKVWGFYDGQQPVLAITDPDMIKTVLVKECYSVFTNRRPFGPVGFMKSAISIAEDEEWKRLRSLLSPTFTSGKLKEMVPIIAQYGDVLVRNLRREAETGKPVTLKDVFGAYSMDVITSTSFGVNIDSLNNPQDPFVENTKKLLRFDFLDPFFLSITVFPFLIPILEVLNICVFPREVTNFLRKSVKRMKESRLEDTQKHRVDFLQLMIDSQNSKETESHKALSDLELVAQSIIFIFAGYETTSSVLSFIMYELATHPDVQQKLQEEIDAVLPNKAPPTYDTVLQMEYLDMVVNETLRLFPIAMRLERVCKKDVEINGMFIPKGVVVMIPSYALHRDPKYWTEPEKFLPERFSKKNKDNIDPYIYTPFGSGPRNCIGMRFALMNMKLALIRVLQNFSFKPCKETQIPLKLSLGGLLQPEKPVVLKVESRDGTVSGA

## O=c1ccc2nc3ccc(OCc4ccccc4)cc3oc-2c1 [Benzyloxyresorufin, 7-benzyloxyresorufin]
CYP3A4 [1]
  Vmax for benzyloxyresorufin by CYP3A4: 0.31 min⁻¹
CYP3A4 [2]; CYP3A4OR, DCFH-DA 2.5 μM, NADPH 1 mM, Michaelis-Menten fit
  Apparent Vmax by measurement of DCF formation: 1.17 ± 0.14 pmol DCF/min/mg pr.
CYP3A4 [2]; [7]
  Km: 3.79 ± 2.34 µM

## CCOc1ccc(NC(C)=O)cc1 [Phenacetin, N-[4-ethoxyphenyl] acetamide]
CYP3A4 [3]
  metabolites found by prior art HPLC methods: no detectable metabolites
CYP3A4 [2]; human, 48 μM, pH 7.4
  DCF formation from potential metabolism by CYP3A4 (in words): ^aPhenacetin was not significantly metabolized by CYP3A4, and DCF formation was not sufficiently high to allow measurement.

## C[C@]12CC[C@H]3[C@@H](CCC4=CC(=O)CC[C@@]43C)[C@@H]1CC[C@@H]2O [Testosterone]
CYP3A4 [4]
  Km: 43.4 µM
CYP3A4 [2]; human, pH 7.4, Apparent Km by measurement of DCF formation, CYP3A4OR, DCFH-DA 2.5 μM, NADPH 1 mM, Michaelis-Menten fit
  Km: 11.9 µM
CYP3A4 [2]; ratio of the two Km values
  Km by DCF measurement lower than Km by 6β-OH testosterone measurement: approximately 3.5 fold
CYP3A4 [2]; [7]
  Km: 12 ± 3.58 µM

## Cc1nc2c([nH]1)c(=O)n(C)c(=O)n2Cc1ccco1 [furafylline]
CYP1A2; 1 μM
  DCF formation: 83.9 ±10.2 % of the control
CYP1A2; 10 μM
  DCF formation: 73.9±7.0 % of the control

B1: CYP1A2 (Homo sapiens) (protein)
chain: MALSQSVPFSATELLLASAIFCLVFWVLKGLRPRVPKGLKSPPEPWGWPLLGHVLTLGKNPHLALSRMSQRYGDVLQIRIGSTPVLVLSRLDTIRQALVRQGDDFKGRPDLYTSTLITDGQSLTFSTDSGPVWAARRRLAQNALNTFSIASDPASSSSCYLEEHVSKEAKALISRLQELMAGPGHFDPYNQVVVSVANVIGAMCFGQHFPESSDEMLSLVKNTHEFVETASSGNPLDFFPILRYLPNPALQRFKAFNQRFLWFLQKTVQEHYQDFDKNSVRDITGALFKHSKKGPRASGNLIPQEKIVNLVNDIFGAGFDTVTTAISWSLMYLVTKPEIQRKIQKELDTVIGRERRPRLSDRPQLPYLEAFILETFRHSSFLPFTIPHSTTRDTTLNGFYIPKKCCVFVNQWQVNHDPELWEDPSEFRPERFLTADGTAINKPLSEKMMLFGMGKRRCIGEVLAKWEIFLFLAILLQQLEFSVPPGVKVDLTPIYGLTMKHARCEHVQARLRFSIN
notes: purchased Gentest Corp. (Woburn, Mass.)
[5]
  Km: 4.89 ± 1.71 µM
[6]
  Km: 3.46 ± 1.07 µM
